Columns and labels:
stimulated PBMC = test: IC50 on stimulated PBMC (actively dividing cells)
Experimental: The IC^50 in PBMC were tested in 2 different activation status:
stimulated—actively dividing cells
IC50 of the compounds was determined on fresh cells isolated from human blood (PBMC). The compounds toxicity was determined as follow: Therapeutic Index=Safety/Potency=IC50 stimulated PBMC_/IC50 cancer cell

PC3 = test: ATP-dependent proliferation/viability assay (Cell Titer Glo), 3 days; conditions: 3 days
Experimental: (§1) The experiment was performed to test and to define the antitumor activity in vitro of cortexolone 17α-benzoate on LNCaP (AR+) and PC3 (AR^−), representative of Prostatic cancer cell lines with Androgen Receptor (AR) positive or negative expression, respectively. The experimental method consisted of: • 1. […] After 24 hours, 10 nM DHT (dihydrotestosterone) with or without anti-androgen compounds, or DMSO vehicle (negative control) was added to the cultures. • 3.
(§2) The experiment was performed to test and to define antitumor activity in vitro of cortexolone 17α-valerate-21-propionate (CB-03-10) on LNCaP (AR+) and PC3 (AR^−), representative of Prostatic cancer cell lines with AR positive or negative expression, respectively. The experimental method consisted of: • 1. […] After 24 hours, 10 nM DHT (dihydrotestosterone) with or without anti-androgen compounds, or DMSO vehicle (negative control) was added to the cultures. • 3.

LNCaP = test: as above; conditions: 3 days
Experimental: as §1, §2

[1] = test system: MiaPaca-2 pancreatic tumor xenograft; test: Human pancreatic tumor xenograft in nude mice, subcutaneous treatment; format: in vivo
Experimental: The test was carried out comparing the anti-tumor activity of cortexolone 17α-benzoate at two different dosages (8.0 mg/kg, corresponding approximately at 230 μM, and 40 mg/kg, corresponding approximately at 1150 μM), versus the vehicle (i.e. 0.4% (v/v) tween 80 and 0.5% (w/v) carboxymethylcellulose in normal saline) and versus the comparator Cyproterone Acetate at two different dosages (7.4 mg/kg and 37 mg/kg).
1×10^6 MiaPaca-2 cells suspended in matrigel were subcutaneously injected into 6 week old athymic nude mice.
The treatment with the tested compounds, with the vehicle and with the comparative compound, was initiated after the tumor volume has reached 50 mm3 after transplantation. All compounds were injected 100 μL/mouse subcutaneously of low dose solution (approximately 230 μM) or 100 μL/mouse of high dose solution (approximately 1150 μM) of cortexolone 17α-benzoate, vehicle and cyproterone acetate, respectively. Compounds and controls were administered subcutaneously daily for 28 days.
Tumors were measured every 4 days with a digital caliper.
The results are plotted in FIG. 1 as average change in tumor volume relative to the start of treatment. Tumor volume was calculated according to the formula 0.5236(r1)^2(r2) where r1<r2.
The test was carried out comparing the anti-tumor activity of cortexolone 17α-valerate-21-propionate (CB-03-10) at two different dosages (approximately 8.6 mg/kg and 43 mg/kg) versus the vehicle (i.e. 0.4% (v/v) tween 80 and 0.5% (w/v) carboxymethylcellulose in normal saline) and versus the comparator Cyproterone Acetate at two different dosages (7.4 mg/kg and 37 mg/kg).
The treatment with the tested compound, with the vehicle and with the comparative compound was initiated after the tumor has reached a volume of 50 mm3 after implantation, injecting subcutaneously 100 μL/mouse of low dose solution (approximately 230 μM) or 100 μL/mouse of high dose solution (approximately 1150 μM) of cortexolone 17α-valerate-21-propionate (CB-03-10), vehicle and cyproterone acetate, respectively. Compounds and controls were administered subcutaneously daily for 28 days.
The results are plotted in FIG. 2 as average change in tumor volume relative to the start of treatment. Tumor volume was calculated according to the formula 0.5236(r1)^2(r2) where r1<r2.
CPA a well-known anti-androgen was used as control. Briefly 1×10^6 MiaPaca2 cells suspended in matrigel were subcutaneously (SC) injected into 6 week old male athymic nude mice. Tumors were measured every 4 days with a digital caliper. Tumor volume was calculated according to the formula: 0.5236(r1)2(r2) where r1<r2. Treatment with CB-03-10 and controls compounds was initiated after the tumor had reached 50 mm3. Compounds diluted in DMSO/2-hydroxypropyl b-cyclodextrin (vehicle) were injected subcutaneously (SC) daily (100 μL/mouse) at the concentration of 40 mg/Kg daily for 28 consecutive days.

CCCCC(=O)O[C@]1(C(=O)COC(=O)CC)CC[C@H]2[C@@H]3CCC4=CC(=O)CC[C@]4(C)[C@H]3CC[C@@]21C [CB-03-10, cortexolone 17α-valerate-21-propionate] was tested, and the “Therapeutic Index = IC50 resting PBMC/IC50 cancer cell” value (stimulated PBMC; PBMC Stim, healthy lymphocyte, Table IV) was 1, the “Therapeutic Index = IC50 stimulated PBMC/IC50 cancer cell, AVERAGE” value (stimulated PBMC; average across the 7 cancer cell lines, Table VII) was 4 and the IC50 (PC3; Homo sapiens, 72 h, PC3 (AR-), 10 nM DHT, Examples 1-2 Experiment 2, nonlinear regression least squares fit, additional experiments) was 50 µM. For the same compound, the “Therapeutic Index = IC50 resting PBMC/IC50 cancer cell” value (PC3; human) was 2, the “Therapeutic Index = IC50 stimulated PBMC/IC50 cancer cell” value (PC3; human) was 2 and the IC50 (LNCaP; Homo sapiens, LNCaP, 72 h, LNCaP (AR+), 10 nM DHT, Examples 1-2 Experiment 1, sigmoidal dose response fit) was 13 µM. For the same compound, the “Therapeutic Index = IC50 resting PBMC/IC50 cancer cell” value (LNCaP; human) was 9, the “Therapeutic Index = IC50 stimulated PBMC/IC50 cancer cell” value (LNCaP; human) was 9 and the “pancreatic tumor size increase relative to initial tumor size” value ([1]; Example 6, high dose approximately 43 mg/kg (1150 μM, 100 μL/mouse) SC daily 28 days, for the time of treatment) was “less than 5 fold”. The “pancreatic tumor size increase relative to the initial size” value ([1]; Example 22, 40 mg/Kg SC daily 28 days, during the treatment period) was “less than 5 fold”, the Median survival ([1]; Example 22, 40 mg/Kg SC daily 28 days, vehicle 60 days) was 70 days and the tumor size increase ([1]; Example 22, 14 days after treatment was stopped, vehicle 14-fold) was 6 fold. The “in vivo antitumor activity compared with Cyproterone Acetate” value ([1]; Examples 5 and 6, FIG. 3, same animal model) was “antitumor activity higher than Cyproterone Acetate”.

— patent US11712443B2, “17α-monoesters and 17α,21-diesters of cortexolone for use in the treatment of tumors” (COSMO TECHNOLOGIES LTD., priority 2014, dated 2023)
